One experiment has as its system RLδ1 tumor. Briefly: Anti-tumor effect on Balb/C mice inoculated with RLδ1 tumor. It counts as in vivo, female Balb/C mice. Conditions: for Survival period: Day 10, day ± standard error; for effect on tumor regression: 3 mg/body, Day 14 (4 day after administration); for Appearent tumor weight: g ± standard error. The procedure: (2) Anti-tumor effect on Balb/C mice inoculated with RLδ1 tumor.
Tumor cells which had been maintained in ascites of Balb/C mouse generation after generation was used. One group is consisting of six female balb/C mice. RLδ1 tumor (1×10^5 cells/0.05 ml) was inoculated into left side of female mice of 6-week old (body weight: 18~20 g). Ten days after, when tumore size came to 7~10 mm, compound of example No. 1(1) or 1(t) was administered by i.p. route (Day 10). Dose of test compound was 1 and 3 mg/body dand each test compound solution volume was 10 ml/kg. Antitumore effect is estimated by survival period and tumor appearent weight.
Test results about survival period and tumor apparent weight are shown in the following Tables II(3) and II(4), respectively.

The test system of a further experiment is lympha cells. Briefly: Mitogenic activity in vitro (Blastogenic index). It counts as cell-based, C3H/He male mice. The conditions noted are these: Mus musculus, Lymphocyte; terminal concentration 1 μg/ml; ratio of 3H-tymidine uptake vs blank control; read-out: Blastgenic Index. The procedure: (1) Mitogenic activity in vitro
Mitogenic activity means activity of activating mitogenic cell division, and in this test system, the amount of tymidine taken into lympha cells was measured and a ratio determined against a blank control call (Blastogenic index) was calculated.
For example, adding the compound prepared in example 1(c) to the test system induced 30 times the amount of tymidine taken into the lympha cells versus the control.
The amounts were measured by density of a radiolabel.
Mytogenic activity in vitro was measured by the following method (See Procedure Method of Immunoexperiment pp 315 published by Japan Immunology Society).
C3H/He male mice 6 weeks old were killed by bloodletting, and their spleens were isolated and homogenized. Homogenizing liquids were filtered with gauze, and suspending cells were prepared with PBS solution. After washing, lymphacytes fractions were gathered with lympholight M. Lymphacytes were suspended in RPMI 1640 cultivation solution (10% FEBS), and the solution was divided into 5×10^5 cells/180 μl/wells. Ten times concentration of the terminal concentration (1 μg/ml) of the compounds of the present invention were added with 20 μl portions to each of the wells.
After cultivation, ^3 H-tymidine 0.5 μCi/20 μl was added to the each cells. Cultivation was continued at 37° C. for another 24 hrs, and amounts of ^3 H-tymidine taken into the cells were measured. Mitogenic activities were calculated as by Blastogenic index in as follows. [formula]

Another experiment concerns Meth-A sarcoma. The experiment is described as follows: Anti-tumor effect on Balb/C mice inoculated with Meth-A Sarcoma. It counts as in vivo, female Balb/C mice. The conditions noted are these: for Apperarent tumor weight: g ± standard error; for effect on prolongation of life / effect on tumore regression: at the dose of 3 mg/kg; for Survival period: iv tail vein Day 7, 9, 12, day ± standard error. The procedure:
(1) Anti-tumor effect on Balb/C mice inocudlated with Meth-A Sarcoma
Anti-tumor effect was measured by the following procedure.
Tumor cells which had been maintained in ascites of Balb/C mouse generation after generation was used. One group is consisting of eight female Balb/C mice. Meth-A sarcoma tumor (1×10^5 cells/0.05 ml) was inoculated into left side of female mice of 7-week old (body weight: 18-20 g). Seven day after, when tumor size came to 6~9 mm, test compound was administered into tail vein first (day 7) and then administered two times (total three times: Day 7, 9, 12). Dose of test compound is 3 and 10 mg/kg or 3, 10 and 30 mg/kg and each test compound solution volume was 10 ml/kg. Anti-tumor effect is estimated by survival period (from inoculation day to death day) and tumor apparent weight. [formula] Test results about survival period and tumor appearent weight are shown in the following Tables II(1) and II(2), respectively.
In experiments, statistic analysis was done with unpaired Student's t(two tailed)-test. […] P values lower than 0.05 were judged to be significant.

Setting [1] is: dose 1 (mg/kg as printed) ip, Day 10 (first column).
Setting [2] is: dose 1 (mg/kg as printed) ip, second column printed Day 10.
[3] abbreviates: dose 3 (mg/kg as printed) ip, Day 10 (first column).
The mark [4] stands for this setting: dose 3 (mg/kg as printed) ip, second column printed Day 10.

Each structure is given as a SMILES string.

Regarding `CCCCCCCCCCC[C@@H](CC(=O)N[C@H]1C(O)O[C@H](CO)[C@@H](OS(=O)(=O)O)[C@@H]1OC(=O)CCCCCCCOc1ccccc1)OC(=O)CCCCCCCOc1ccccc1` (stereo partly drawn) [1(l), 2-deoxy-2-[3S-(8-phenoxyoctanoyloxy)tetradecanoyl]amino-3-O-(8-phenoxyoctanoyl)-4-O-sulfo-D-glucopyranose], the Survival period in the experiment with RLδ1 tumor (1 mg/body ip) worked out at 47.3 ± 18.8 days; in the experiment with RLδ1 tumor (3 mg/body ip), 55.3 ± 16.4 days. Further, the “effect on tumor regression” value with RLδ1 tumor was “significant effect”. Moreover, the Appearent tumor weight turned out to be 0.216 ± 0.043 g with RLδ1 tumor (setting [1]); 0.234 ± 0.168 g with RLδ1 tumor (setting [2]); 0.351 ± 0.349 g with RLδ1 tumor (dose 1 (mg/kg) ip, Day 13); 0.216 ± 0.029 g in the experiment on RLδ1 tumor (setting [3]); 0.210 ± 0.192 g in the experiment with RLδ1 tumor (setting [4]); 0.333 ± 0.375 g in the experiment with RLδ1 tumor (dose 3 (mg/kg) ip, Day 13).

In the case of `CCCCCCCCCCC[C@@H](CC(=O)N[C@H]1C(O)O[C@H](CO)[C@@H](OS(=O)(=O)O)[C@@H]1OC(=O)CCCCCCCCc1cccc2ccccc12)OC(=O)CCCCCCCCc1cccc2ccccc12` (stereo partly drawn) [1(o), 2-deoxy-2-[3S-[9-(1-naphthyl)nonanoyloxy]tetradecanoyl]amino-3-O-[9-(1-naphthyl)nonanoyl]-4-O-sulfo-D-glucopyranose], in the experiment with lympha cells, the fold induction at 1 µg/mL was found to be 17.

Regarding `CCCCCCCCCCC[C@H](CC(=O)N[C@H]1[C@H](OC)O[C@H](CO)[C@@H](OS(=O)(=O)O)[C@@H]1OC(=O)CCCCCCCCc1ccccc1)OC(=O)CCCCCCCCc1ccccc1` [1(t), 2-methyl-2-deoxy-2-[3R-(9-phenylnonanoyloxy)tetradecanoyl]amino-3-O-(9-phenylnonanoyl)-4-O-sulfo-β-D-glucopyranoside], the Survival period with RLδ1 tumor (1 mg/body ip) was determined as 51.8 ± 20.1 days; in the experiment on RLδ1 tumor (3 mg/body ip) it was 54.0 ± 18.4 days. Further, in the experiment with RLδ1 tumor, the “effect on tumor regression” value was “significant effect”. The Appearent tumor weight in the experiment on RLδ1 tumor (setting [1]) amounted to 0.226 ± 0.082 g; with RLδ1 tumor (setting [2]), 0.241 ± 0.257 g; in the experiment with RLδ1 tumor (dose 1 (mg/kg) ip, Day 13), 0.383 ± 0.583 g; with RLδ1 tumor (setting [3]) it was 0.213 ± 0.041 g; in the experiment with RLδ1 tumor (setting [4]), 0.159 ± 0.092 g; in the experiment with RLδ1 tumor (dose 3 (mg/kg) ip, Day 13), 0.147 ± 0.153 g. Further, the fold induction at 1 µg/mL in the experiment on lympha cells turned out to be 50.

For `CCCCCCCCCCC[C@@H](CC(=O)N[C@H]1CO[C@H](C)[C@@H](OS(=O)(=O)O)[C@@H]1OC(=O)CCCCCCCCc1ccccc1)OC(=O)CCCCCCCCc1ccccc1` [Example 2, 2,6-deoxy-2-[3S-(9-phenylnonanoyloxy)tetradecanoyl]amino-3-O-(9-phenynonanoyl)-4-O-sulfo-1,5-anhydro-D-glucitol], in the experiment with lympha cells, the fold induction at 1 µg/mL amounted to 33.

For `CCCCCCCCCCOc1ccc(C(=O)N[C@H]2[C@@H](OC)O[C@H](CO)[C@@H](OS(=O)(=O)O)[C@@H]2OC(=O)c2ccc(OCCCCCCCCCC)c(OCCCCCCCCCC)c2)cc1OCCCCCCCCCC` [4(b), Methyl 2-deoxy-2-(3,4-didecyloxybenzoyl)amino-3-O-(3,4-didecyloxybenzoyl)-4-O-sulfo-α-D-glucopyranoside], the Apperarent tumor weight with Meth-A sarcoma (3 mg/kg iv, Day 7) is 0.218 ± 0.028 g; in the experiment with Meth-A sarcoma (3 mg/kg iv, Day 10), 0.172 ± 0.094 g; in the experiment with Meth-A sarcoma (3 mg/kg iv, Day 13), 0.272 ± 0.181 g; with Meth-A sarcoma (3 mg/kg iv, Day 16), 0.430 ± 0.459 g; in the experiment with Meth-A sarcoma (10 mg/kg iv, Day 7), 0.217 ± 0.022 g; with Meth-A sarcoma (10 mg/kg iv, Day 10), 0.154 ± 0.042 g. In addition, the Apperarent tumor weight in the experiment with Meth-A sarcoma (10 mg/kg iv, Day 13) amounted to 0.197 ± 0.068 g; with Meth-A sarcoma (10 mg/kg iv, Day 16) it was 0.172 ± 0.141 g. Besides, in the experiment on Meth-A sarcoma, the “effect on prolongation of life” value was “significant effect”. In addition, the “effect on tumore regression” value with Meth-A sarcoma was “significant effect”. The Survival period with Meth-A sarcoma (dose 3 (mg/kg)) stood at 61.6 ± 18.0 days; with Meth-A sarcoma (dose 10 (mg/kg)), 65.8 ± 20.4 days.

With `O=C(CCCCCCCCc1cccc2ccccc12)N[C@H]1C(O)O[C@H](CO)[C@@H](OS(=O)(=O)O)[C@@H]1OC(=O)CCCCCCCCc1cccc2ccccc12` (stereo partly drawn) [1(u), 2-deoxy-2-[9-(1-naphthyl)nonanoyl]amino-3-O-[9-(1-naphthyl)nonanoyl]-4-O-sulfo-D-glucopyranose], in the experiment with lympha cells, the fold induction at 1 µg/mL stood at 10.

Consider `CCCCCCCCCCC[C@@H](CC(=O)N[C@H]1C(O)O[C@H](CO)[C@@H](OS(=O)(=O)O)[C@@H]1OC(=O)CCCCCCCCCCc1ccccc1)OC(=O)CCCCCCCCCCc1ccccc1` (stereo partly drawn) [1(f), 2-deoxy-2-[3S-(11-phenylundecanoyloxy)tetradecanoyl]amino-3-O-(11-phenylundecanoyl)-4-O-sulfo-D-glucopyranose], for which the fold induction at 1 µg/mL in the experiment on lympha cells was 23.

Take `CCCCCCCCCCCCCC(=O)N[C@H]1C(O)O[C@H](CO)[C@@H](OS(=O)(=O)O)[C@@H]1OC(=O)c1ccc(OCCCCCCCCCC)c(OCCCCCCCCCC)c1` (some centres unmarked) [4(c)]: the Apperarent tumor weight in the experiment on Meth-A sarcoma (3 mg/kg iv, Day 7) amounted to 0.200 ± 0.044 g; in the experiment on Meth-A sarcoma (3 mg/kg iv, Day 10), 0.230 ± 0.084 g; in the experiment with Meth-A sarcoma (3 mg/kg iv, Day 13), 0.392 ± 0.176 g; with Meth-A sarcoma (3 mg/kg iv, Day 16), 0.578 ± 0.274 g; in the experiment with Meth-A sarcoma (10 mg/kg iv, Day 7), 0.210 ± 0.025 g; in the experiment with Meth-A sarcoma (10 mg/kg iv, Day 10), 0.206 ± 0.053 g. Further, the Apperarent tumor weight with Meth-A sarcoma (10 mg/kg iv, Day 13) turned out to be 0.242 ± 0.086 g; in the experiment with Meth-A sarcoma (10 mg/kg iv, Day 16), 0.300 ± 0.193 g; with Meth-A sarcoma (30 mg/kg iv, Day 7) it was 0.209 ± 0.023 g; with Meth-A sarcoma (30 mg/kg iv, Day 10) it was 0.168 ± 0.062 g; with Meth-A sarcoma (30 mg/kg iv, Day 13) it was 0.222 ± 0.152 g; with Meth-A sarcoma (30 mg/kg iv, Day 16), 0.309 ± 0.259 g. Moreover, the “effect on prolongation of life” value in the experiment on Meth-A sarcoma is “significant effect”. Also, the “effect on tumore regression” value in the experiment with Meth-A sarcoma was “significant effect”. Further, the Survival period turned out to be 51.9 ± 8.2 days in the experiment on Meth-A sarcoma (dose 3 (mg/kg)), 58.3 ± 13.8 days in the experiment on Meth-A sarcoma (dose 10 (mg/kg)) and 71.3 ± 16.1 days in the experiment on Meth-A sarcoma (dose 30 (mg/kg)).

Regarding `CCCCCCCCCCCC(CC(=O)N[C@H]1COC[C@@H](OS(=O)(=O)O)[C@@H]1OC(=O)CCCCCCCCc1ccccc1)OC(=O)CCCCCCCCc1ccccc1` (single isomer, unassigned) [3(c), 2-deoxy-2-[3-(9-phenylnonanoyl)oxytetradecanoyl]amino-3-O-(9-phenylnonanoyl)-4-O-sulfo-1,5-anhydro-D-xylitol], the fold induction at 1 µg/mL in the experiment with lympha cells turned out to be 13.8.

Values taken from patent publication USRE36385E, “Glucopyranose derivatives” (Ono Pharmaceutical Co., Ltd., priority 1985, dated 1999).
